The values below come from patent US7960408B2, “Quinolinyl and benzothiazolyl modulators” (Amgen Inc., priority 2000, dated 2011).

Broadly, the IC50 is the concentration that inhibits the measured activity by half. Higher therefore signals a need for much substance.

This assay has as its target T1, PPARγ (Homo sapiens, UniProt P37231).
T1 construct: made in house
T1 sequence (P37231 1-505): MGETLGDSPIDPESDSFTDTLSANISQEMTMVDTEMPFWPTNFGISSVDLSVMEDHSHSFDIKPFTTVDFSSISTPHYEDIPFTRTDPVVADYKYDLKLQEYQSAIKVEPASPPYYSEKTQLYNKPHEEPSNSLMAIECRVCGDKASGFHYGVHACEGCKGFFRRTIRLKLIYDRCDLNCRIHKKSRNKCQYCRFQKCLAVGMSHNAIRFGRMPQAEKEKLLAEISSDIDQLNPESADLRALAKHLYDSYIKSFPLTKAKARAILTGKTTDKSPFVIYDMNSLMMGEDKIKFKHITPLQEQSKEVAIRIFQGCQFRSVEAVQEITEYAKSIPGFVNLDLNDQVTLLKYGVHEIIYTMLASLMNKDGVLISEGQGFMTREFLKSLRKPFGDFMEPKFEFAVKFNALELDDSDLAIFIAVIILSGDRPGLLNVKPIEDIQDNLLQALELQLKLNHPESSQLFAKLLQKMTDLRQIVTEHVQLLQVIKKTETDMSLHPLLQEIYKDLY
Put plainly: PPARγ ligand binding assay utilizing [3H]-BRL 49653 as the radioligand. To be noted: concentration required to reduce by 50% the specific binding of [3H]-BRL 49653. From the text: The compounds of the present invention can be evaluated for modulation of the PPARγ receptor using assays such as those described in Jiang, et al., Nature 391:82-86 (1998), Ricote, et al., Nature 391:79-82 (1998) and Lehmann, et al., J. Biol. Chem. 270(12): 12953-12956 (1995). Alternatively, the compounds can be evaluated for their ability to displace radiolabeled BRL 49653 from a PPARγ-GST fusion protein as follows:
PPARγ-GST fusion protein (prepared according to standard procedures), [^3H]—BRL 49653 having 50 Ci/mmol specific activity, Polyfiltronics Unifilter 350 filtration plate and glutathione-Sepharose® beads (from Pharmacia: washed twice with 10× binding buffer in which BSA and DTI can be left out).
Binding buffer (10 mM Tris-HCl, pH 8.0, 50 mM KCI, 10 mM DTT, 0.02% BSA and 0.01% NP-40) is added in 80-μL amounts to the wells of the filtration plate. The test compound is then added in 10 μL of DMSO. The PPARγ-GST fusion protein and radiolabeled BRL compound are premixed in binding buffer containing 10 mM DTT and added in 10-μL amounts to the wells of the plate to provide final concentrations of 1 μg/well of PPARγ-GST fusion protein and 10 nM [^3H]—BRL 49653 compound. The plate is incubated for 15 min. Glutathione-agarose bead is added in 50 μL of binding buffer, and the plate is vigorously shaken for one hour. The plate is washed four times with 200 μL/well of binding buffer (without BSA and DTT). The bottom of the plate is sealed and 200 μL/well of scintillation cocktail is added. The top of the plate is then sealed and the radioactivity is determined.
IC50 values are defined as the concentration of test compounds required to reduce by 50% the specific binding of [^3H]—BRL 49653 and are represented by (+) <30 μM; (++) <10 μM; (+++) <1 μM.
On to `O=S(=O)(Nc1cc(Cl)c(Cc2ccc3ccccc3n2)c(Cl)c1)c1ccc(Cl)cc1Cl` [Compound 225, 2,4-Dichloro-N-(3,5-dichloro-4-quinolin-2-ylmethyl-phenyl)-benzenesulfonamide], for which the IC50 was below 1 µM. `O=S(=O)(Nc1cc(Cl)cc(Oc2nc3ccc(F)cc3s2)c1)c1ccc(C(F)(F)F)cc1Cl` [Compound 304, 2-Chloro-N-[3-chloro-5-(6-fluoro-benzothiazol-2-yloxy)-phenyl]-4-trifluoromethyl-benzenesulfonamide] registered a half-maximal inhibitory concentration (IC50) below 1 µM. To `CC(=O)c1ccc(S(=O)(=O)Nc2cc(Cl)c(Oc3nc4ccc(Cl)cc4s3)c(Cl)c2)cc1` [Compound 436, 4-Acetyl-N-[3,5-dichloro-4-(6-chloro-benzothiazol-2-yloxy)-phenyl]-benzenesulfonamide] belongs 1 to 10 µM; to `COC(=O)c1cccc2cc(Oc3c(Cl)cc(NS(=O)(=O)c4ccc(Cl)cc4Cl)cc3Cl)cnc12` [Compound 46, 3-[2,6-Dichloro-4-(2,4-dichloro-benzenesulfonylamino)-phenoxy]-quinoline-8-carboxylic acid methyl ester], below 1 µM. The compound `O=S(=O)(Nc1cc(Cl)cc(Oc2nc3ccc(F)cc3s2)c1)c1ccc(Cl)cc1Cl` [Compound 305, 2,4-Dichloro-N-[3-chloro-5-(6-fluoro-benzothiazol-2-yloxy)-phenyl]-benzenesulfonamide] registered an IC50 below 1 µM.

For the compound `Cc1cc(S(=O)(=O)Nc2cc(F)c(Oc3cnc4ccccc4c3)c(Cl)c2)c(Cl)cc1Cl` [Compound 50, N-[3-Chloro-5-fluoro-4-(quinolin-3-yloxy)phenyl]-2,4-dichloro-5-methyl-benzenesulfonamide], the IC50 is below 1 µM.

Turning to `CS(=O)(=O)c1ccc2sc(Oc3c(Cl)cc(NS(=O)(=O)c4ccc(C(F)(F)F)cc4Cl)cc3Cl)nc2c1` [Compound 458, 2-Chloro-N-[3,5-dichloro-4-(5-methanesulfonyl-benzothiazol-2-yloxy)-phenyl]-4-trifluoromethyl-benzenesulfonamide], the IC50 is below 1 µM. For `Cc1cc(S(=O)(=O)Nc2cc(Cl)cc(Oc3nc4ccc(F)cc4s3)c2)c(Cl)cc1Cl` [Compound 306, 2,4-Dichloro-N-[3-chloro-5-(6-fluoro-benzothiazol-2-yloxy)-phenyl]-5-methyl-benzenesulfonamide], the IC50 is below 1 µM. `N#Cc1ccc2sc(Oc3cc(Cl)cc(NS(=O)(=O)c4ccc(C(F)(F)F)cc4Cl)c3)nc2c1` [Compound 286, 2-Chloro-N-[3-chloro-5-(5-cyano-benzothiazol-2-yloxy)-phenyl]-4-trifluoromethyl-benzenesulfonamide] returned an IC50 of 1 to 10 µM. As for `O=S(=O)(Nc1cc(Cl)c([S+]([O-])c2cnc3ccccc3c2)c(Cl)c1)c1ccccc1` (stereo not shown) [Compound 5.3], the concentration for half-maximal inhibition (IC50) fell in the range of 1 to 10 µM. In turn, `O=S(=O)(Nc1cc(Cl)c(Sc2cnc3ccccc3c2)c(Cl)c1)c1ccc(Cl)cc1Cl` [Compound 4.1] returned an IC50 below 1 µM.

“2,4-Dichloro-N-[3,5-dichloro-4-(6-methyl-quinoln-3-yloxy)-phenyl]-5-methyl-benzenesulfonamide [Compound 49]” showed an IC50 below 1 µM. `O=S(=O)(Nc1cc(Cl)cc(Cc2nc3cc(Cl)ccc3s2)c1)c1ccc(C(F)(F)F)cc1Cl` [Compound 331, 2-Chloro-N-[3-chloro-5-(5-chloro-benzothiazol-2-ylmethyl)-phenyl]-4-trifluoromethyl-benzenesulfonamide]: the IC50 is below 1 µM.

Take `COc1ccc2nc(Oc3cc(Cl)cc(NS(=O)(=O)c4ccc(C(F)(F)F)cc4Cl)c3)sc2c1` [Compound 307, 2-Chloro-N-[3-chloro-5-(6-methoxy-benzothiazol-2-yloxy)-phenyl]-4-trifluoromethyl-benzenesulfonamide]: the 50% inhibitory concentration (IC50) lay in the range of 1 to 10 µM. As for `N#Cc1ccc2sc(Oc3cc(Cl)cc(NS(=O)(=O)c4ccc(Cl)cc4Cl)c3)nc2c1` [Compound 287, 2,4-Dichloro-N-[3-chloro-5-(5-cyano-benzothiazol-2-yloxy)-phenyl]-benzenesulfonamide], the figure is below 1 µM; as for `Cc1cc(S(=O)(=O)Nc2cc(Cl)cc(Cc3nc4cc(Cl)ccc4s3)c2)c(Cl)cc1Cl` [Compound 333, 2,4-Dichloro-N-[3-chloro-5-(5-chloro-benzothiazol-2-ylmethyl)-phenyl]-5-methyl-benzenesulfonamide], below 1 µM; as for `COc1ccc2nc(Oc3cc(Cl)cc(NS(=O)(=O)c4cc(C)c(Cl)cc4Cl)c3)sc2c1` [Compound 309, 2,4-Dichloro-N-[3-chloro-5-(6-methoxy-benzothiazol-2-yloxy)-phenyl]-5-methyl-benzenesulfonamide], below 1 µM.

The compound `O=S(=O)(Nc1cc(Cl)c(Sc2cnc3ccccc3c2)c(Cl)c1)c1ccccc1` [Compound 4.2] displayed a half-maximal inhibitory concentration (IC50) below 1 µM. To `CCOC(=O)c1ccc2nc(Oc3cc(Cl)cc(NS(=O)(=O)c4ccc(C(F)(F)F)cc4Cl)c3)sc2c1` [Compound 311, 2-[3-Chloro-5-(2-chloro-4-trifluoromethyl-benzenesulfonylamino)-phenoxy]-benzothiazole-6-carboxylic acid ethyl ester] belongs below 1 µM. `O=S(=O)(Nc1cc(Cl)cc(Oc2nc3cc(Cl)ccc3s2)c1)c1ccc(C(F)(F)F)cc1Cl` [Compound 283, 2-Chloro-N-[3-chloro-5-(5-chloro-benzothiazol-2-yloxy)-phenyl]-4-trifluoromethyl-benzenesulfonamide]: the IC50 fell in the range of 1 to 10 µM.

As to `Cc1cc(S(=O)(=O)Nc2cc(Cl)cc(Oc3nc4c(C)cccc4s3)c2)c(Cl)cc1Cl` [Compound 295, 2,4-Dichloro-N-[3-chloro-5-(4-methyl-benzothiazol-2-yloxy)-phenyl]-5-methyl-benzenesulfonamide], the IC50 lay within 1 to 10 µM. `CS(=O)(=O)c1ccc2nc(Oc3c(Cl)cc(NS(=O)(=O)c4ccc(C(F)(F)F)cc4Cl)cc3Cl)sc2c1` [Compound 441, 2-Chloro-N-[3,5-dichloro-4-(6-methanesulfonyl-benzothiazol-2-yloxy)-phenyl]-4-trifluoromethyl-benzenesulfonamide] displayed an IC50 below 1 µM. With `CS(=O)(=O)Nc1ccc2sc(Oc3c(Cl)cc(NS(=O)(=O)c4ccc(C(F)(F)F)cc4Cl)cc3Cl)nc2c1` [Compound 457, 2-Chloro-N-[3,5-dichloro-4-(5-methanesulfonylamino-benzothiazol-2-yloxy)-phenyl]-4-trifluoromethyl-benzenesulfonamide], the IC50 is below 1 µM. To `O=S(=O)(Nc1cc(Cl)cc(Oc2nc3c(Cl)cccc3s2)c1)c1ccc(Cl)cc1Cl` [Compound 291, 2,4-Dichloro-N-[3-chloro-5-(4-chloro-benzothiazol-2-yloxy)-phenyl]-benzenesulfonamide] belongs 10 to 30 µM. `COc1cccc2sc(Oc3cc(Cl)cc(NS(=O)(=O)c4ccc(Cl)cc4Cl)c3)nc12` [Compound 297, 2,4-Dichloro-N-[3-chloro-5-(4-methoxy-benzothiazol-2-yloxy)-phenyl]-benzenesulfonamide] came in with an IC50 of 1 to 10 µM.

`CCOC(=O)c1ccc2nc(Oc3cc(Cl)cc(NS(=O)(=O)c4ccc(C(F)(F)F)cc4Cl)c3)sc2c1` [Compound 310, 2-[3-Chloro-5-(2-chloro-4-trifluoromethyl-benzenesulfonylamino)-phenoxy]-benzothiazole-6-carboxylic acid ethyl ester] returned a concentration for half-maximal inhibition (IC50) below 1 µM. For the compound `O=S(=O)(Nc1cc(Cl)c(Oc2nc3c(Cl)cccc3s2)c(Cl)c1)c1ccc(C(F)(F)F)cc1Cl` [Compound 424, 2-Chloro-N-[3,5-dichloro-4-(4-chloro-benzothiazol-2-yloxy)-phenyl]-4-trifluoromethyl-benzenesulfonamide], the IC50 was 1 to 10 µM. Turning to `COc1cccc2sc(Oc3c(Cl)cc(NS(=O)(=O)c4ccc(Cl)cc4Cl)cc3Cl)nc12` [Compound 428, 2,4-Dichloro-N-[3,5-dichloro-4-(4-methoxy-benzothiazol-2-yloxy)-phenyl]-benzenesulfonamide], the IC50 is below 1 µM.
